Oligonucleotides are written 5' to 3', each unit as a sugar letter and its base; * is a phosphorothioate linkage, no mark a phosphodiester; rarer units and linkages stand in square brackets, end groups in braces. Plain capitals give the bases only. m = 2'-O-methyl; f = 2'-fluoro
System: factor B mRNA transcript
Test: Knockdown of factor B expression in HepG2 cells using siRNAs, dose response experiments (DRC)
Type: cell-based, human
Details: for Max Factor B inhibition (%): dose response up to 100 nM
Protocol: HepG2 cells were obtained from ATCC (ATCC in partnership with LGC Standards, Wesel, Germany, cat. #ATCC-HB-8065) and cultured in MEM Eagle (#M2279, Sigma-Aldrich, Germany), supplemented to contain 10% fetal calf serum (#1248D, Biochrom GmbH, Berlin, Germany), 1×non-essential amino acids (#K0293; Biochrom, Berlin, Germany), 4 mM L-Glutamine (#K0283, Biochrom, Berlin, Germany) and 100 U/ml Penicillin/100 μg/ml Streptomycin (#A2213, Biochrom GmbH, Berlin, Germany) at 37° C. in an atmosphere with 5% CO2 in a humidified incubator.
24 siRNAs were designed and synthesized to target different regions of the factor B mRNA transcript. In this experiment, the sense strand of each siRNA contained 18 nucleotides identical to a target region sequence on the factor B transcript (SEQ ID NO: 75), and one additional adenine nucleotide at the 3′ end. Additionally, in this experiment, the antisense strand contained 18 nucleotides complementary to a target region sequence on the factor B transcript (SEQ ID NO: 75), and one additional uracil nucleotide at the 5′ end, and 2 additional uracil nucleotides at the 3′ end.
Transfection of siRNA was carried out with Lipofectamine RNAiMax (Invitrogen/Life Technologies, Karlsruhe, Germany) according to manufacturer's instructions for reverse transfection.
Each siRNA was tested using dose response experiments (DRC) in HepG2 cells. Dose-response experiments were done with siRNA in 10 concentrations transfected in quadruplicates, starting at 100 nM in 6-fold dilutions steps down to ˜10 fM. Mock transfected cells served as negative controls.
For each well, the target mRNA level was normalized to the respective GAPDH mRNA level. The activity of a given siRNA was expressed as percent mRNA concentration of the respective target (normalized to GAPDH mRNA) in treated cells, relative to the target mRNA concentration (normalized to GAPDH mRNA) averaged across mock transfected wells (DRCs).
Dose response experiments described above were repeated in a subset of siRNAs shown in Table 9, specifically siRNAs 2, 7, 8, and 3.

[1] = reverse transfection, 10 concentrations from 100 nM in 6-fold dilutions, factor B mRNA normalized to GAPDH, relative to mock, Table 8
[2] = additional (repeated) dose response experiments, Table 10

| Substance | Max Factor B inhibition (%) (Table 8) | IC20 [1] [nM] | IC50 [1] [nM] | IC80 [1] [nM] | IC20 [2] [nM] | IC50 [2] [nM] | IC80 [2] [nM] | Max KD [%] [2] [%] |
| --- | --- | --- | --- | --- | --- | --- | --- | --- |
| 1 (sense mC*mC*fUmAmCmUfAfCfAmAmUfGmUmGmAmGfUmGmA; antisense mU*fC*mAmCmUmCmAmCmAmUmUmGmUfAmGmUmAmGmG*mU*mU; siRNA) [compound 1] | 91.04 | 0.03 | 0.54 | 19.8 |  |  |  |  |
| 2 (sense mC*mU*fUmCmUmGfGfCfUmUmCfUmAmCmCmCfGmUmA; antisense mU*fA*mCmGmGmGmUmAmGmAmAmGmCfCmAmGmAmAmG*mU*mU; siRNA) [compound 2] | 90.18 |  |  | 7.07 | 0.021 | 0.0887 | 0.865 | 83.5 |
| 3 (sense mU*mU*fCmUmGmGfCfUfUmCmUfAmCmCmCmGfUmAmA; antisense mU*fU*mAmCmGmGmGmUmAmGmAmAmGfCmCmAmGmAmA*mU*mU; siRNA) [compound 3] | 89.76 | 0.02 | 0.29 | 12 | 0.0722 | 0.204 | 0.886 | 87 |
| 4 (sense mC*mU*fGmCmUmAfUfGfAmCmGfGmUmUmAmCfAmCmA; antisense mU*fG*mUmGmUmAmAmCmCmGmUmCmAfUmAmGmCmAmG*mU*mU; siRNA) [compound 4] | 88.29 | 0.05 | 0.48 | 10.9 |  |  |  |  |
| 5 (sense mG*mG*fGmGmAmGfUfAfGmUmGfGmAmUmGmUfCmUmA; antisense mU*fA*mGmAmCmAmUmCmCmAmCmUmAfCmUmCmCmCmC*mU*mU; siRNA) [compound 5] | 86.90 | 0.1 | 0.67 | 9.65 |  |  |  |  |
| 6 (sense mU*mG*fUmGmGmUfGfUfCmUmGfAmGmUmAmCfUmUmA; antisense mU*fA*mAmGmUmAmCmUmCmAmGmAmCfAmCmCmAmCmA*mU*mU; siRNA) [compound 6] | 85.34 | 0.03 | 0.37 | 16.1 |  |  |  |  |
| 7 (sense mU*mA*fCmGmUmGfUfGfUmCmCfUmUmCmUmGfGmCmA; antisense mU*fG*mCmCmAmGmAmAmGmGmAmCmAfCmAmCmGmUmA*mU*mU; siRNA) [compound 7] | 82.44 |  | 0.02 | 670 | 0.026 | 0.103 | 0.868 | 83.5 |
| 8 (sense mA*mA*fGmUmGmUfCfUfAmGmUfCmAmAmCmUfUmAmA; antisense mU*fU*mAmAmGmUmUmGmAmCmUmAmGfAmCmAmCmUmU*mU*mU; siRNA) [compound 8] | 82.24 |  | 0.16 | 717 | 0.0889 | 0.271 |  | 76.2 |
| 9 (sense mC*mU*fAmUmGmAfCfGfUmUmGfCmCmCmUmGfAmUmA; antisense mU*fA*mUmCmAmGmGmGmCmAmAmCmGfUmCmAmUmAmG*mU*mU; siRNA) [compound 9] | 82.07 | 0.01 | 0.27 | 142 |  |  |  |  |
| 10 (sense mC*mU*fCmGmGmUfUfCfCmUmUfUmGmUmAmCfUmGmA; antisense mU*fC*mAmGmUmAmCmAmAmAmGmGmAfAmCmCmGmAmG*mU*mU; siRNA) [compound 10] | 81.72 | 0.43 | 1.7 | 31.6 |  |  |  |  |
| 11 (sense mA*mC*fCmAmUmAfGfAfAmGmGfAmGmUmCmGfAmUmA; antisense mU*fA*mUmCmGmAmCmUmCmCmUmUmCfUmAmUmGmGmU*mU*mU; siRNA) [compound 11] | 81.08 | 0.01 | 0.26 | 2350 |  |  |  |  |
| 12 (sense mG*mG*fAmUmUmAfUfCfUmGmGfAmUmGmUmCfUmAmA; antisense mU*fU*mAmGmAmCmAmUmCmCmAmGmAfUmAmAmUmCmC*mU*mU; siRNA) [compound 12] | 80.54 | 0.13 | 0.89 | 183 |  |  |  |  |
